# According to patent publication US20060052458A1, “Preventive or remedy for intrauterine late embryonic development or pregnancy toxemia” (KISSEI PHARMACEUTICAL CO., LTD., priority 2003, published 2006):
# Marks after values point to notes of the source that are not given here.
# How the values were obtained:
# [1] = test system: rat L-NAME-induced gestational toxicosis model; test: Confirmation of effects on gestational toxicosis (Test Example 2); format: in vivo
# Excerpt: A gestational toxicosis model was created as follows. A 17th -gestation day rat was anesthetized with ether. Then, the poll was incised approximately 10 mm to transplant in control group an osmotic pressure pump filled with L-NAME, and in the normal group, in the similar manner, an osmotic pressure pump filled with physiological saline in place of L-NAME. To the test group, in addition to the above pump, an osmotic pressure pump filled with bis(2-{[(2S)-2-({(2R)-2-hydroxy-2-[4-hydroxy-3-(2-hydroxyethyl)phenyl]ethyl}amino)-1,2,3,4-tetrahydronaphthalene-7-yl]oxy}-N,N-dimethylacetamide) monosulfate (the compound represented by the above formula (Ia)) was implanted. On the 20th gestation day, the mother animal was anesthetized with ether, and the fetus was extirpated. Severity of static gangrene at the tip of fetal extremities was examined, and the amount of maternal urinary albumin and plasma triglyceride level were measured.
# While bis(2-{[(2S)-2-({(2R)-2-hydroxy-2-[4-hydroxy-3-(2-hydroxyethyl)phenyl]ethyl)amino)-1,2,3,4-tetrahydronaphthalene-7-yl]oxy)-N,N-dimethylacetamide) monosulfate was dissolved in physiological saline and an osmotic pressure pump with the dose of 200 μg/day was inserted, L-NAME was dissolved in physiological saline to make 200 mg/mL for filling and an osmotic pressure pump with the dose of 48 mg/day was inserted.
# [2] = test system: rat intrauterine growth retardation model induced by L-NAME; test: Confirmation of effects on IUGR (Test Example 1); format: in vivo
# Excerpt: IUGR model was created as follows in accordance with the method by Yallampalli et al. (Am J Obstet Gynecol, vol. 169: 1316-1320, 1993). A 17th-gestation day rat was anesthetized with ether. Then, the poll was incised approximately 10 mm to transplant in control group an osmotic pressure pump filled with L-NAME, and in the normal group, in the similar manner, an osmotic pressure pump filled with physiological saline in place of L-NAME. To the test group, in addition to the above pump, an osmotic pressure pump filled with bis(2-{[(2S)-2-({(2R)-2-hydroxy-2-[4-hydroxy-3-(2-hydroxyethyl)phenyl]ethyl}amino)-1,2,3,4-tetrahydronaphthalene-7-yl]oxy)-N,N-dimethylacetamide) monosulfate (the compound of the above formula (Ia)) was implanted. On the 20th gestation day, the mother animal was anesthetized with ether, and the fetus was extirpated and weighed. Maternal blood pressure was measured before ether anesthesia on the 17th and 20th gestation days. In statistical analysis, comparisons of control group with normal group or test group were conducted in F-test for variance. When there was equal variance, unpaired t-tests were performed. When there was unequal variance, Welch's test was performed.
# Bis(2-{[(2S)-2-({(2R)-2-hydroxy-2-[4-hydroxy-3-(2-hydroxyethyl)phenyl]ethyl}amino)-1,2,3,4-tetrahydronaphthalene-7-yl]oxy}-N,N-dimethylacetamide) sulfate was dissolved in physiological saline and an osmotic pressure pump with the dose of 50 μg/day was inserted, while L-NAME was dissolved in physiological saline to make 50 mg/mL for filling and an osmotic pressure pump with the dose of 12 mg/day was inserted.
# [3] = L-NAME 48 mg/day + compound 200 μg/day by osmotic pump from gestation day 17, examined on day 20
# [4] = L-NAME 48 mg/day + compound 200 μg/day by osmotic pump, gestation day 20
compound,measurement,setting,value
"CN(C)C(=O)COc1ccc2c(c1)C[C@@H](NC[C@H](O)c1ccc(O)c(CCO)c1)CC2 [formula (Ia), bis(2-{[(2S)-2-({(2R)-2-hydroxy-2-[4-hydroxy-3-(2-hydroxyethyl)phenyl]ethyl}amino)-1,2,3,4-tetrahydronaphthalene-7-yl]oxy}-N,N-dimethylacetamide) monosulfate]",Static gangrene in the tip of extremities (incidence %),[1]; [3],8%
same,The number of static gangrene in the tip of extremities/The number of fetuses,[1]; [3],16/203
same,Maternal plasma triglyceride level,[1]; [4],143 µg/mL
same,Maternal urinary albumin level,[1]; [4],222.1# μg/mL
same,Change in maternal blood pressure after administration (effect on maternal heart),"[2]; 50 μg/day by osmotic pump, gestation days 17 to 20",no change in maternal blood pressure
same,Mean blood pressure of dam,"[2]; Day 20 of gestation, L-NAME 12 mg/day + compound 50 μg/day by osmotic pump",102.5 mmHg
same,Fetal body weight,"[2]; pregnant rat, L-NAME 12 mg/day + compound 50 μg/day by osmotic pump from gestation day 17, fetus weighed on day 20",3550 mg
